Results reported in patent publication US20120196766A1, “Therapeutic Use of Farnesyltransferase Inhibitors and Methods of Monitoring the Efficacy Thereof” (priority 2004, published 2012).

Tested on: THP-1 cells
Test: cDNA microarray analysis of LPS-induced gene transcription in THP-1 cells
Format: cell-based, Human
Procedure: THP-1 cells were cultured in RPMI1640 medium, supplemented with 10% FBS/100 units/ml Penicillin/10 μg/ml Streptomycin at 37° C., under 5% CO2. […] For the untreated control group (no LPS, no compound) and LPS alone group, equivalent volumes of DMSO were added to the medium. Cells were cultured at 37° C. and pellets were collected at 0 hr, 1 hr, 3 hr, 6 hr, 12 hr & 24 hr. Cell pellets were stored at −80° C. if RNA isolation was not conducted immediately. For experiments to study cytokine secretion in culture supernatants, THP-1 cells were washed twice with PBS, resuspended at 3.4×10^5/ml and cultured in 96-well plates at 250 μL, per well at 37° C. […] Supernatants were collected at different time points as indicated in the figures and were kept at ≦−20° C. until analysis of cytokine production.
Total RNA was isolated using RNeasy mini kit from QIAGEN (Valencia, Calif.) according to the manufacturer's instructions. RNA samples were stored at −80° C.
Five μg of total RNA was linearly amplified to double-stranded cDNA using T7-based amplification. The cDNA was purified using the QIAquick 96 PCR purification kit (QIAGEN Valencia, Calif.), and used to generate amplified (a) RNA using AmpliScribe™ T7 High Yield Transcription Kit (Epicentre, Madison, Wis.). Ten μg of purified aRNA was reverse transcribed to cDNA using the SuperScript RTII kit (Invitrogen) and labeled by direct incorporation of Cy3-dCTP. The generated cDNA probe was used for hybridizing to cDNA microarrays.
Each clone was spotted in duplicate on the array.

[1] = LPS 100 ng/ml, tipifarnib 5 μM, 3 hr
[2] = LPS 100 ng/ml, tipifarnib 5 μM, 6 hr
[3] = LPS 100 ng/ml, tipifarnib 5 μM, 12 hr
[4] = LPS 100 ng/ml, tipifarnib 5 μM, 24 hr

Cn1cncc1C(N)(c1ccc(Cl)cc1)c1ccc2c(c1)c(-c1cccc(Cl)c1)cc(=O)n2C (single isomer, unassigned; (+)) [tipifarnib, (+)-6-[amino(4-chlorophenyl)(1-methyl-1H-imidazol-5-yl)methyl]-4-(3-chlorophenyl)-1-methyl-2(1H)-quinolinone]
−1.23: Fold-change (tipifarnib/LPS vs LPS) B2M [2] | Fold-change (tipifarnib/LPS vs LPS) C3AR1 [2] | Fold-change (tipifarnib/LPS vs LPS) TIMP3 [2] | Fold-change (tipifarnib/LPS vs LPS) ABCB8 [3] | Fold-change (tipifarnib/LPS vs LPS) IFI16 [3] | Fold-change (tipifarnib/LPS vs LPS) LAP3 [3] | Fold-change (tipifarnib/LPS vs LPS) MYD88 [3] | Fold-change (tipifarnib/LPS vs LPS) ABCB8 [4] | Fold-change (tipifarnib/LPS vs LPS) CCND1 [4] | Fold-change (tipifarnib/LPS vs LPS) IL1B [4] | Fold-change (tipifarnib/LPS vs LPS) TAP1 [4] | Fold-change (tipifarnib/LPS vs LPS) TAP2 [4]
1.23: Fold-change (tipifarnib/LPS vs LPS) CCL3 [3] | Fold-change (tipifarnib/LPS vs LPS) IER3 [4]
1.32: Fold-change (tipifarnib/LPS vs LPS) IL8 [3] | Fold-change (tipifarnib/LPS vs LPS) MX1 [3]
−1.15: Fold-change (tipifarnib/LPS vs LPS) S100A9 [1] | Fold-change (tipifarnib/LPS vs LPS) TAP2 [1] | Fold-change (tipifarnib/LPS vs LPS) CCND1 [2] | Fold-change (tipifarnib/LPS vs LPS) IL8 [2] | Fold-change (tipifarnib/LPS vs LPS) IL1RN [3] | Fold-change (tipifarnib/LPS vs LPS) NEXN [3] | Fold-change (tipifarnib/LPS vs LPS) TAP1 [3] | Fold-change (tipifarnib/LPS vs LPS) TIMP3 [3] | Fold-change (tipifarnib/LPS vs LPS) UBE2L6 [3]
1.15: Fold-change (tipifarnib/LPS vs LPS) TAP1 [1] | Fold-change (tipifarnib/LPS vs LPS) IER3 [2] | Fold-change (tipifarnib/LPS vs LPS) LY6E [3] | Fold-change (tipifarnib/LPS vs LPS) B2M [4] | Fold-change (tipifarnib/LPS vs LPS) TIMP3 [4]
1.07: Fold-change (tipifarnib/LPS vs LPS) CCL4 [2]
−1.07: Fold-change (tipifarnib/LPS vs LPS) UBE2L6 [1] | Fold-change (tipifarnib/LPS vs LPS) CCL3 [2] | Fold-change (tipifarnib/LPS vs LPS) NFKB2 [2] | Fold-change (tipifarnib/LPS vs LPS) S100A9 [2] | Fold-change (tipifarnib/LPS vs LPS) TRIM22 [3] | Fold-change (tipifarnib/LPS vs LPS) IL8 [4]
1.00: Fold-change (tipifarnib/LPS vs LPS) TRIM22 [1] | Fold-change (tipifarnib/LPS vs LPS) IGFBP3 [2] | Fold-change (tipifarnib/LPS vs LPS) IER3 [3] | Fold-change (tipifarnib/LPS vs LPS) KCNK17 [3] | Fold-change (tipifarnib/LPS vs LPS) STAT1 [3]
34: number of LPS-induced transcripts downregulated (out of 121 genes with at least […] induction by LPS at 2 time points, at least […] decrease at one or more time points)
−1.41: Fold-change (tipifarnib/LPS vs LPS) TIMP3 [1] | Fold-change (tipifarnib/LPS vs LPS) IFIT1 [2] | Fold-change (tipifarnib/LPS vs LPS) LGR7 [2] | Fold-change (tipifarnib/LPS vs LPS) MMP9 [2] | Fold-change (tipifarnib/LPS vs LPS) NEXN [2] | Fold-change (tipifarnib/LPS vs LPS) UBE2L6 [2] | Fold-change (tipifarnib/LPS vs LPS) GNPNAT1 [3] | Fold-change (tipifarnib/LPS vs LPS) MMP9 [4] | Fold-change (tipifarnib/LPS vs LPS) UBE2L6 [4]
−1.32: Fold-change (tipifarnib/LPS vs LPS) STAT1 [1] | Fold-change (tipifarnib/LPS vs LPS) IFI16 [2] | Fold-change (tipifarnib/LPS vs LPS) KCNK17 [2] | Fold-change (tipifarnib/LPS vs LPS) PTX3 [2] | Fold-change (tipifarnib/LPS vs LPS) IFIT1 [3] | Fold-change (tipifarnib/LPS vs LPS) NFKB2 [3] | Fold-change (tipifarnib/LPS vs LPS) PTX3 [3] | Fold-change (tipifarnib/LPS vs LPS) TAP2 [3] | Fold-change (tipifarnib/LPS vs LPS) LY6E [4] | Fold-change (tipifarnib/LPS vs LPS) MX1 [4] | Fold-change (tipifarnib/LPS vs LPS) MYD88 [4]
